# Data as given in patent publication US5447916A, “Peptoid alpha-1 adrenergic receptor ligands” (Chiron Corporation, priority 1993, dated 1995).
# Tested on: α1-adrenergic receptors
# Experiment: 3H-Prazosin binding assay on rat forebrain membranes
# Details: for Percent Inhibition: Inhibition at 100 nM (100 nM receptor concentration as printed), 3H-Prazosin; for IC50 / Ki: 0.5 nM 3H-Prazosin; for Ki: 1 hr at room temperature
# Procedure: Preparation of Rat Forebrain Membranes:
# Rat brains were purchased from Animal Technologies, Tyler, Tex., and shipped on wet ice within 24 hours after being harvested. The forebrains were dissected and homogenized with a Tissue Tearor in 50 mM Tris, pH 7.5, containing 20 mM NaCl, 5 mM EGTA, 2 mM MgCl2, 21 μg/mL aprotinin, 0.5 mg/L leupeptin, 0.7 mg/L pepstatin, 0.2 mM PMSF. Each brain is homogenized in approximately 5 mL of this buffer. The homogenate is then spun at 1000 RPM (75×g) in a Sorval RC-5B centrifuge (SS-34 rotor) for 10 min. The pellets are discarded and the supernatants then respun at 17,000 RPM (22,500×g) for 15 min. The pellets were then resuspended in the same buffer as above containing 5 mM EDTA and no MgCl2 (1 brain/mL). Membranes were stored in 1 mL aliquots at -70° C.
# Thawed membranes were dispersed into a homogenous solution by passing them through a 22 gauge needle 5 times. To initiate the assay, 50 μL of membrane were dispensed into a plastic 12×75 mm tube containing 1 mL of 50 mM Tris, pH 7.5, 0.5 nM ^3 H-Prazosin (New England Nuclear), and the compounds to be tested. Nonspecific binding was determined as ^3 H-Prazosin bound in the presence of 5 μM unlabeled prazosin. Incubation was for 1 hr at room temperature. Unbound radioactivity was removed by rinsing the membranes on Whatman GF/B glass fiber filters. Each filter was washed 3 times with 3 mL of 50 mM Tris, pH 7.5, 4° C. Filters were soaked overnight in 5 mL of Beckman ReadySafe scintillation cocktail then counted for one minute in a Wallac 1409 liquid scintillation counter.
Compound,Percent Inhibition,IC50,Ki
Nhtyr-Nbiph-Nmhphe [Nhtyr--Nbiph--Nmhphe],21.2%,–,–
Nhtyr--Nbiph--Nbhm,–,1400 nM,313 nM
Nhtyr-Npop-Nhphe [Nhtyr--Npop--Nhphe],–,490 nM,140 nM
Nzhphe-Nbiph-Nhphe [Nzhphe--Nbiph--Nhphe],53.9%,–,–
Nphtyr-Nbiph-Nhphe [Nphtyr--Nbiph--Nhphe],22.7%,–,–
Bz-Nhphe-Nbiph-Nhphe [Bz--Nhphe--Nbiph--Nhphe],24.8%,–,–
Nhtyr-Nbiph-Nphphe [Nhtyr--Nbiph--Nphphe],48.3%,–,–
Nhtyr- Npbiph-Nhphe [Nhtyr--Npbiph--Nhphe],20.3%,–,–
Noco-Nbiph-Nhphe [Noco--Nbiph--Nhphe],23.6%,–,–
"NC(=O)CN(CCc1ccccc1)C(=O)CN(C(=O)CNCCc1ccc(O)cc1)c1ccc(-c2ccccc2)cc1 [Nhtyr--Nbiph--Nhphe, Nhtyr-Nbiph-Nhphe]",–,19 nM,7 nM
